The subject of series [1] is ESBL KPN. Kind of series: PNA growth assay (optical density) on clinical isolate. Type of series: cell-based, Klebsiella pneumoniae. On the procedure:
(§1) Bacterial Cell culture: The clinical isolates were obtained from the lab of Nancy Madinger at the University of Colorado Anschutz campus. Clinical isolates were grown in Cation Adjusted Mueller Hinton broth (CAMHB) (Becton, Dickinson and Company 212322) at 37° C. with 225 rpm shaking or on solid CAMHB with 1.5% agar at 37° C. Clinical isolates were maintained as freezer stocks in 90% CAMHB, 10% glycerol at −80° C. Freezer stocks were streaked out onto solid CAMHB and incubated for 16 h to produce single colonies prior to experiments. For each biological replicate, a single colony was picked from solid media and grown for 16 h in liquid CAMHB prior to experiments. Non-clinical isolates, such as E. coli MG1655 (ATCC700926) and Salmonella entorica serovar typhimurium SL1344, were cultured in liquid 2% lysogeny broth (LB) or on 2% LB with 1.5% agar for solid plates. S. typhimurium cultures were supplemented with 30 μg/mL streptomycin and SL1344 strains containing plasmids pFPV (SL1344-mCherry) or pRG1 modified with a lacIq promoter (SL1344-Holin) were supplemented with 100 μg/mL ampicillin. Freezer stocks were stored in 60% LB broth, 40% glycerol at −80° C. Freezer stocks were streaked out onto solid LB and incubated for 16 h to produce single colonies before experiments. For biological replicates, single colonies were started in liquid LB and grown for 16 hours prior to experiments. E. coli MG1655 PNA growth experiments were carried out in M9 media (1×M9 minimal media salts solution (MP Biomedicals), 2.0 mM MgSO4, and 0.1 mM CaCl2 in sterile water) with 0.4% glucose.
(§2) PNA growth assay: Biological replicates were diluted 1:10,000 into treatment condition in 384-well plates and measured for 24 h in a Tecan GENios at 562 nm with a bandwidth of 35 nm. Media absorbance blanks were subtracted from data prior to analysis. Normalized optical density (OD) data is shown normalized to the time point where the “no treatment” growth curves reached saturation phase which varied across biological replicates.

Series [2] concerns ESBL KPN. Briefly: Potentiation of antibiotics with PNAs (Bliss Independence). The conditions noted are these: 10 μM PNA + 2 μg/mL tetracycline. Type of series: cell-based, Klebsiella pneumoniae. On the procedure:
(§3) Combinatorial effects were evaluated using the Bliss Independence model where the S parameter defines a deviation from no interaction as is defined as: […]
(§4) Where ODAB is the OD at saturation time in only antibiotic, OD0 is the OD at saturation in no treatment, ODPNA is the OD at saturation in only antisense-PNA at 10 μM, and ODAB, PNA is the OD at saturation in a combination of antibiotic and antisense-PNA. Saturation time was determined as the time when the no treatment control reached its saturation growth phase. S>0 is a deviation towards synergy and S<0 is a deviation towards antagonism.

Series [3] concerns MDR E. coli. Kind of series: PNA growth assay (optical density) on clinical isolate. Type of series: cell-based, Escherichia coli. On the procedure:
as §1, §2

Series [4] relates to NDM-1 KPN. The description is as above. Type of series: cell-based, Klebsiella pneumoniae. The procedure: as §1, §2
Series [5] has as its system NDM-1 KPN. Kind of series: Potentiation of antibiotics with PNAs (Bliss Independence). The conditions noted are these: 10 μM PNA + 8 μg/mL meropenem, compared to meropenem monotherapy. Type of series: cell-based, Klebsiella pneumoniae. The procedure: as §3, §4
The subject of series [6] is SL1344 infection of MC3T3-E1 osteoblast precursor cells. Kind of series: Salmonella infection of osteoblast precursor cells, T3SS-PNA treatment. It is filed as cell-based, Salmonella enterica serovar typhimurium. The conditions noted are these: 10 μM, multiplicity of infection of 30, 18 hours. The procedure: FIG. 11. […] Osteoblast precursor cells were grown for 24 hours on tissue culture treated 96-well plates prior to infection with SL1344 at a multiplicity of infection of 30. (A) The antisense inhibitor α-rpsD was added at 10 μM either without infection (No Treatment), after infection (Naked), or during infection (T3SS Transport). (B) After treatment for 18 hours the infection was imaged in brightfield and GFP channel. GFP expression corresponds to an intracellular infection with red arrows indicating hard to see GFP expression.
Osteoblast Precursor Cell Culture: MC3T3-E1 osteoblast precursor cells were stored in liquid nitrogen in growth media supplemented with %10 dimethyl sulfoxide (DMSO, Sigma). Osteoblasts were recovered from freezer stocks and cultured in growth media consisting of α-Minimum Essential Media (α-MEM, Gibco) supplemented with 10% Fetal Bovine Serum (FBS, Advanced, Atlanta Biologics), and 50 units/mL Penicillin-Streptomycin (P/S, Fisher Scientific) at 37° C., 5% CO2, and controlled humidity. For biological replicates a freezer stock, at passage 9, was split three ways and each replicate continuously passaged as individual biological replicates at 80% confluency using 0.25% trypsin (HyClone). […]

Setting [7] is: 10 μM PNA, optical density vs no treatment at 16 hours.

Several values for one entry are separate records, joined by “and”; a condition that tells them apart may be missing. Identical values can stand only once.

“α-lexA: 12-mer antisense PNA cGGAATGAAAGC (SEQ ID NO. 17) targeting lexA, conjugated to (KFF)3K cell penetrating peptide via AEEA-linker (antisense CGGAATGAAAGC; all peptide nucleic acid (PNA); (KFF)3K cell-penetrating peptide attached via AEEA linker)”: the “monotherapy effect (in words)” value in series [1] (10 μM) is reported as “no or minimal growth inhibition”. The “growth with combination therapy (in words)” value in series [2] is listed as “significant growth inhibition compared to each monotherapy”. Further, in series [2] (S>0 indicates synergy), the “S-value (Bliss Independence model)” value is “positive”.

Consider “α-rpsD: 12-mer antisense PNA AGAAAATGGCAA (SEQ ID NO. 19) targeting rpsD, conjugated to (KFF)3K cell penetrating peptide via AEEA-linker (all peptide nucleic acid (PNA); (KFF)3K cell-penetrating peptide attached via AEEA linker)”, for which the “monotherapy effect (in words)” value in series [3] is recorded as “effective in killing”; in series [4] (10 μM), “partial monotherapy effect”. Further, the growth inhibition in series [3] (setting [7]) was 98±0.7% and 98%; in series [1] (setting [7]), 82%±8.8; in series [4] (setting [7]), 65±7.1%. In addition, in series [5], the “growth with combination therapy (in words)” value was “significantly reduced the growth”. The “Salmonella infection of osteoblast cells (in words)” value in series [6] is given as “eliminates Salmonella infection”.

The values above are taken from patent US20210087565A1, “ANTISENSE ANTIBIOTICS AND BACTERIAL SECRETION BASED DELIVERY SYSTEM TO ELIMINATE DRUG-RESISTANT BACTERIA” (priority 2018, published 2021).
